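Method: 48-hour compound exposure of cells in 96-well plates, five concentrations, linear interpolation of endpoints. Here, GI50 denotes the concentration required for 50% inhibition of growth. TGI denotes the concentration required for complete inhibition of growth.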 Some results are limits rather than exact numbers.

In one assay the test system is SR leukemia. Kind of assay: growth of human tumour cells (NCI), 48 h.
The compound `CS(=O)(=O)OCC(CCl)(CCl)CCl` displayed a TGI of more than 100 µM.

In turn, `C=CCSc1nnc2cc(CN3CCCC3)c(-c3ccc(Cl)cc3)nn12` returned a TGI of more than 100 µM.

Regarding `CN(C)c1ccc(C(=N/N=C2\C(=O)Nc3ccccc32)c2ccc(N(C)C)cc2)cc1`, the TGI was 26.8 µM.

In turn, `Cc1ccc(C(=C2Sc3ccccc3S2)C(=C2Sc3ccccc3S2)c2ccc(C)s2)s1` gave a TGI of 85.7 µM.

`CSC(=S)N(C)C` came in with a TGI of more than 100 µM.

In turn, `COc1ccc(C2=N/C(=C\c3ccccc3)C(=O)O2)cc1` gave a TGI of 57.5 µM.

On to `CCN(CC)CCN(C(=Nc1ccccc1)N1CCOCC1)c1ccccc1`, for which the TGI was more than 100 µM.

`CCC1(CC)C(=O)NN(C(=O)c2ccccc2)C1=O` returned a TGI of more than 100 µM.

Regarding `COc1ccc(NC(=O)CC(=O)N2N=C(N3c4ccccc4Sc4ccccc43)CC2c2ccccc2)cc1` (stereo not given), the TGI was more than 100 µM.

In turn, `Cc1cc(C(=O)CCCCOc2ccc(C3=NCCO3)cc2)c(C)n1C` had a TGI of 54.9 µM.

In turn, `[O-][n+]1ccccc1Sc1nc(Sc2cccc[n+]2[O-])nc(Sc2cccc[n+]2[O-])n1` returned a TGI of 2.97 µM.

With `CSc1nsc(-c2ccccc2)[s+]1`, the TGI is more than 100 µM.

For the next assay, the system named is HCC-2998 colon. Description: growth of human tumour cells (NCI), 48 h.
The compound `CC(=O)Nc1nc(C#N)[nH]c1C#N` returned a TGI of more than 100 µM.

Compound `Cc1cc(N(CCOS(C)(=O)=O)CCOS(C)(=O)=O)ccc1C=O` came in with a TGI of 24.6 µM.

In the case of `O=c1[nH]c(=O)n(C2OC(CO)C(O)C2O)c2nc(-c3ccc(-c4ccccc4)cc3)cnc12` (stereo not given), the TGI was more than 100 µM.

The compound `CCOP(=O)(OCC)C(c1ccc(F)cc1)N(C(=O)NC(F)(F)F)c1ccc(OC)cc1` (stereo not given) registered a TGI of more than 100 µM.

The compound `CCOC(=O)c1c(C)nc2c3ccccc3c(C#N)c(C)n12` gave a TGI of more than 100 µM.

Compound `Cc1cc2c3c(nc4ccccc42)C(=O)c2ccccc2-c3n1` showed a TGI of 53.9 µM.

For `O=C1c2ccccc2-c2c1c(-c1ccc(F)cc1)nc1ccc3ccccc3c21`, the TGI is more than 100 µM.

In turn, `O=C(O)CCC(=O)OC1N=C(c2ccccc2Cl)c2cc([N+](=O)[O-])ccc2NC1=O` (stereo not given) displayed a TGI of more than 100 µM.

On to `CO[C@H]1/C=C(/C)CCC[C@H](C)[C@H](O)[C@@H](C)C(=O)C(C)(C)[C@@H](O)CC(=O)O[C@@H]1/C(C)=C/c1csc(C)n1`, for which the GI50 is 20.3 nM and the TGI came to 0.259 µM.

`COc1ccc(-c2nc(SCC(=O)N/N=C/c3ccc(N(C)C)cc3)[nH]c2-c2ccc(OC)cc2)cc1` displayed a TGI of more than 100 µM.

In turn, `CS(=O)(=O)OCC(CCl)(CCl)CCl` gave a TGI of more than 100 µM.

`CCOC(=O)c1cn2c(nc1=O)N[C@H]1CCCC[C@@H]12`: the TGI was more than 100 µM.

The compound `CN(C)c1ccc(C(=N/N=C2\C(=O)Nc3ccccc32)c2ccc(N(C)C)cc2)cc1` showed a TGI of 17.5 µM.

`Cc1ccc(C(=C2Sc3ccccc3S2)C(=C2Sc3ccccc3S2)c2ccc(C)s2)s1` yielded a TGI of more than 100 µM.

In the case of `COc1ccc(C2=N/C(=C\c3ccccc3)C(=O)O2)cc1`, the TGI is more than 100 µM.

In turn, `CCN(CC)CCN(C(=Nc1ccccc1)N1CCOCC1)c1ccccc1` had a TGI of more than 100 µM.

As to `COP(=O)(/C=C/c1cc(C(=O)OCc2ccccc2)n(S(=O)(=O)c2ccccc2)c1)OC`, the TGI is more than 100 µM.

The compound `CCC1(CC)C(=O)NN(C(=O)c2ccccc2)C1=O` displayed a TGI of more than 100 µM.

`COc1ccc(NC(=O)CC(=O)N2N=C(N3c4ccccc4Sc4ccccc43)CC2c2ccccc2)cc1` (stereo not given): the TGI was more than 100 µM.

Compound `[O-][n+]1ccccc1Sc1nc(Sc2cccc[n+]2[O-])nc(Sc2cccc[n+]2[O-])n1` displayed a TGI of 2.89 µM.

In turn, `CN(C)C1(N(C)C)Oc2c(c(=O)n(C)c(=O)n2C)C(c2ccc(Br)cc2)C1(F)F` (stereo not given) gave a TGI of more than 100 µM.

As for `CSc1nsc(-c2ccccc2)[s+]1`, the TGI was more than 100 µM.

For the next assay, the system named is HOP-92 NSCLC. Description: growth of human tumour cells (NCI), 48 h.
`NS(=O)(=O)c1cc2c(cc1Cl)NC(CCC(=O)O)=NS2(=O)=O`: the TGI was more than 100 µM.

`CC(=O)Nc1nc(C#N)[nH]c1C#N` gave a TGI of more than 100 µM.

`O=C(O)/C=C(/C(=O)O)C12CCN3CC4=CCOC5CC(=O)NC1C5C4CC32` (stereo not given) came in with a TGI of more than 100 µM.

As for `CC1CCC(C(=O)O)(C(Br)C(=O)O)CC1` (stereo not given), the TGI is more than 100 µM.

On to `Cc1cc(N(CCOS(C)(=O)=O)CCOS(C)(=O)=O)ccc1C=O`, for which the TGI was determined as 39 µM.

Turning to `O=c1[nH]c(=O)n(C2OC(CO)C(O)C2O)c2nc(-c3ccc(-c4ccccc4)cc3)cnc12` (stereo not given), the TGI was more than 100 µM.

Compound `CCOC(=O)c1c(C)nc2c3ccccc3c(C#N)c(C)n12` returned a TGI of more than 100 µM.

For the compound `Cc1cc2c3c(nc4ccccc42)C(=O)c2ccccc2-c3n1`, the TGI was more than 100 µM.

With `O=C(O)CCC(=O)OC1N=C(c2ccccc2Cl)c2cc([N+](=O)[O-])ccc2NC1=O` (stereo not given), the TGI is more than 100 µM.

As for `CO[C@H]1/C=C(/C)CCC[C@H](C)[C@H](O)[C@@H](C)C(=O)C(C)(C)[C@@H](O)CC(=O)O[C@@H]1/C(C)=C/c1csc(C)n1`, the GI50 was 38 nM and the TGI was more than 100 µM.

Turning to `CCOC(=O)c1ccc(NCC#CCN2CCOCC2)cc1`, the TGI was more than 100 µM.

In turn, `COc1ccc(-c2nc(SCC(=O)N/N=C/c3ccc(N(C)C)cc3)[nH]c2-c2ccc(OC)cc2)cc1` yielded a TGI of more than 100 µM.

In the case of `CS(=O)(=O)OCC(CCl)(CCl)CCl`, the TGI was more than 100 µM.

`C=CCSc1nnc2cc(CN3CCCC3)c(-c3ccc(Cl)cc3)nn12`: the TGI is 34.3 µM.

In turn, `CCOC(=O)c1cn2c(nc1=O)N[C@H]1CCCC[C@@H]12` displayed a TGI of more than 100 µM.

As to `CN(C)c1ccc(C(=N/N=C2\C(=O)Nc3ccccc32)c2ccc(N(C)C)cc2)cc1`, the TGI was 51.2 µM.

As for `CSC(=S)N(C)C`, the TGI was more than 100 µM.

In the case of `COc1ccc(C2=N/C(=C\c3ccccc3)C(=O)O2)cc1`, the TGI is more than 100 µM.

`COc1ccc(NC(=O)CC(=O)N2N=C(N3c4ccccc4Sc4ccccc43)CC2c2ccccc2)cc1` (stereo not given) gave a TGI of more than 100 µM.

`[O-][n+]1ccccc1Sc1nc(Sc2cccc[n+]2[O-])nc(Sc2cccc[n+]2[O-])n1` had a TGI of 3.03 µM.

Consider `CN(C)C1(N(C)C)Oc2c(c(=O)n(C)c(=O)n2C)C(c2ccc(Br)cc2)C1(F)F` (stereo not given), for which the TGI is more than 100 µM.

A further assay concerns MDA-N. Description: growth of human tumour cells (NCI), 48 h.
As to `NS(=O)(=O)c1cc2c(cc1Cl)NC(CCC(=O)O)=NS2(=O)=O`, the TGI is more than 100 µM.

Consider `CC(=O)Nc1nc(C#N)[nH]c1C#N`, for which the TGI was more than 100 µM.

`O=C(O)/C=C(/C(=O)O)C12CCN3CC4=CCOC5CC(=O)NC1C5C4CC32` (stereo not given) yielded a TGI of more than 100 µM.

The compound `COc1ccc2c(C)cc(=O)oc2c1OC` returned a TGI of more than 100 µM.

In turn, `CC1CCC(C(=O)O)(C(Br)C(=O)O)CC1` (stereo not given) returned a TGI of more than 100 µM.

`Cc1cc(N(CCOS(C)(=O)=O)CCOS(C)(=O)=O)ccc1C=O` came in with a TGI of 26.4 µM.

With `O=c1[nH]c(=O)n(C2OC(CO)C(O)C2O)c2nc(-c3ccc(-c4ccccc4)cc3)cnc12` (stereo not given), the TGI is more than 100 µM.

The compound `CCOP(=O)(OCC)C(c1ccc(F)cc1)N(C(=O)NC(F)(F)F)c1ccc(OC)cc1` (stereo not given) yielded a TGI of more than 100 µM.

These data come from PubChem BioAssay (NCI).
